pIC50: −log10 of the molar value.
Test system: 233499-124-R-J3-PDC complex spheroid growth
Assay: Anticancer human tumor 233499-124-R-J3-PDC patient-derived colon adenocarcinoma cell line growth inhibition [AhR]
Conditions: for pIC50: curve of first compound; for viability, T/C: stronger effect = lower value
In short: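 Agents were dosed in half-log steps down from roughly clinical Cmax, or from 10 microM where Cmax was unknown, alone and with AhR antagonists. Read-out: percent test/control growth of tumor spheroids containing HUVEC and MSC stromal cells.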

[1] = second compound 0.1 µM, first compound 0.0316 µM
[2] = second compound 0.1 µM, first compound 0.1 µM
[3] = second compound 0.1 µM, first compound 0.316 µM
[4] = second compound 0.1 µM, first compound 1 µM
[5] = second compound 0.1 µM, first compound 3.16 µM
[6] = second compound 0.1 µM, first compound 10 µM
[7] = second compound 0.316 µM, first compound 0.0316 µM
[8] = second compound 0.316 µM, first compound 0.1 µM
[9] = second compound 0.316 µM, first compound 0.316 µM
[10] = second compound 0.316 µM, first compound 1 µM
[11] = second compound 0.316 µM, first compound 3.16 µM
[12] = second compound 0.316 µM, first compound 10 µM
[13] = second compound 1 µM, first compound 0.0316 µM
[14] = second compound 1 µM, first compound 0.1 µM
[15] = second compound 1 µM, first compound 0.316 µM
[16] = second compound 1 µM, first compound 1 µM
[17] = second compound 1 µM, first compound 3.16 µM
[18] = second compound 1 µM, first compound 10 µM
[19] = second compound 3.16 µM, first compound 0.0316 µM
[20] = second compound 3.16 µM, first compound 0.1 µM
[21] = second compound 3.16 µM, first compound 0.316 µM
[22] = second compound 3.16 µM, first compound 1 µM
[23] = second compound 3.16 µM, first compound 3.16 µM
[24] = second compound 3.16 µM, first compound 10 µM
[25] = second compound 10 µM, first compound 0.0316 µM
[26] = second compound 10 µM, first compound 0.1 µM
[27] = second compound 10 µM, first compound 0.316 µM
[28] = second compound 10 µM, first compound 1 µM
[29] = second compound 10 µM, first compound 3.16 µM
[30] = second compound 10 µM, first compound 10 µM
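Further: spheroids exposed to agents for seven days before reading.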

SMILES	pIC50 (second compound 0.1 µM)	pIC50 (second compound 0.316 µM)	pIC50 (second compound 1 µM)	pIC50 (second compound 3.16 µM)	pIC50 (second compound 10 µM)	viability, T/C [1] [%]	viability, T/C [2] [%]	viability, T/C [3] [%]	viability, T/C [4] [%]	viability, T/C [5] [%]	viability, T/C [6] [%]	viability, T/C [7] [%]	viability, T/C [8] [%]	viability, T/C [9] [%]	viability, T/C [13] [%]	viability, T/C [14] [%]	viability, T/C [19] [%]	viability, T/C [20] [%]	viability, T/C [25] [%]	viability, T/C [26] [%]	other results
Nc1ccn(C2OC(CO)C(O)C2(F)F)c(=O)n1 (stereo not given) + Cc1cncc(-c2nc(NCCc3c[nH]c4ccccc34)c3ncn(C(C)C)c3n2)c1	5.75	6.11	< 5.00	5.53	< 5.00	95.4	72	71.8	50.5	41.4	47.2	76.5	82.7	68	84.8	81.7	74.5	75.2	52.6	44.9	viability, T/C [10]: 45.4%; viability, T/C [11]: 40.1%; viability, T/C [12]: 45.9%; viability, T/C [15]: 64%; viability, T/C [16]: 57.6%; viability, T/C [17]: 43.9%; viability, T/C [18]: 61.9%; viability, T/C [21]: 69.2%; viability, T/C [22]: 60.1%; viability, T/C [23]: 38.6%; viability, T/C [24]: 60.2%; viability, T/C [27]: 56%; viability, T/C [28]: 47.3%; viability, T/C [29]: 53%; viability, T/C [30]: 51.9%
COc1ccc([C@@H](O)c2cc(-c3ncnc4cc(N5CCOCC5)ccc34)c(F)cc2Cl)nn1 + CC(CO)NC(=O)c1cc(-c2ccc(Cl)cc2)nn(-c2cnn(C)c2)c1=O	< 5.00	< 5.00	< 5.00	< 5.00	< 5.00	104	96	88.8	87	92.8	84.7	108	99.1	89.7	96.2	86.5	98.3	86.3	90.9	83.8	viability, T/C [10]: 83%; viability, T/C [11]: 75.6%; viability, T/C [12]: 75.3%; viability, T/C [15]: 76.8%; viability, T/C [16]: 86.4%; viability, T/C [17]: 73.9%; viability, T/C [18]: 74.8%; viability, T/C [21]: 84.7%; viability, T/C [22]: 88.2%; viability, T/C [23]: 69.5%; viability, T/C [24]: 78.2%; viability, T/C [27]: 66.8%; viability, T/C [28]: 75.2%; viability, T/C [29]: 77%; viability, T/C [30]: 76.9%
Nc1ccccc1NC(=O)c1ccc(CNC(=O)OCc2cccnc2)cc1 + Cc1ccccc1N=Nc1ccc(NC(=O)c2ccnn2C)c(C)c1	5.29	5.25	5.26	5.27	5.32	116	93.3	106	129	80	7.02	116	103	119	116	107	112	106	93.4	108	viability, T/C [10]: 113%; viability, T/C [11]: 93%; viability, T/C [12]: 7.54%; viability, T/C [15]: 117%; viability, T/C [16]: 130%; viability, T/C [17]: 86.4%; viability, T/C [18]: 9.07%; viability, T/C [21]: 118%; viability, T/C [22]: 113%; viability, T/C [23]: 86.8%; viability, T/C [24]: 6.35%; viability, T/C [27]: 105%; viability, T/C [28]: 109%; viability, T/C [29]: 74.4%; viability, T/C [30]: 7.59%
Cn1ncnc1C1c2n[nH]c(=O)c3cc(F)cc(c23)NC1c1ccc(F)cc1 (stereo not given) + Cc1ccccc1N=Nc1ccc(NC(=O)c2ccnn2C)c(C)c1	< 7.00	< 7.00	< 7.00	< 7.00	< 7.00	99.2	106	–	–	–	–	95.8	94.7	–	99	109	94.9	99.2	89.8	98.9	viability, T/C (second compound 0.1 µM, first compound 0.000316 µM): 104%; viability, T/C (second compound 0.1 µM, first compound 0.001 µM): 107%; viability, T/C (second compound 0.1 µM, first compound 0.00316 µM): 110%; viability, T/C (second compound 0.1 µM, first compound 0.01 µM): 110%; viability, T/C (second compound 0.316 µM, first compound 0.000316 µM): 93%; viability, T/C (second compound 0.316 µM, first compound 0.001 µM): 105%; viability, T/C (second compound 0.316 µM, first compound 0.00316 µM): 106%; viability, T/C (second compound 0.316 µM, first compound 0.01 µM): 101%; viability, T/C (second compound 1 µM, first compound 0.000316 µM): 108%; viability, T/C (second compound 1 µM, first compound 0.001 µM): 113%; viability, T/C (second compound 1 µM, first compound 0.00316 µM): 103%; viability, T/C (second compound 1 µM, first compound 0.01 µM): 101%; viability, T/C (second compound 3.16 µM, first compound 0.000316 µM): 95.6%; viability, T/C (second compound 3.16 µM, first compound 0.001 µM): 102%; viability, T/C (second compound 3.16 µM, first compound 0.00316 µM): 90.3%; viability, T/C (second compound 3.16 µM, first compound 0.01 µM): 97.2%; viability, T/C (second compound 10 µM, first compound 0.000316 µM): 109%; viability, T/C (second compound 10 µM, first compound 0.001 µM): 110%; viability, T/C (second compound 10 µM, first compound 0.00316 µM): 109%; viability, T/C (second compound 10 µM, first compound 0.01 µM): 98.7%

Reference: PubChem BioAssay AID1918993 (Molecular Pharmacology Branch, DTP, NCI, 2023)
